Patent US20250205265A1, “ASPERULOSIDE AS AN AGENT FOR IMPROVING VASCULAR AND METABOLIC FUNCTION IN OBESITY: ROLE OF NRF2 ACTIVATION” (The Chinese University of Hong Kong, priority 2023, published 2025)
Entries after “also recorded” stand apart in the source; their conditions may differ. Where two headings read alike, the source gives them in different places.

Columns and labels:
[1] = system: ROS; experiment: DHE staining of ROS in obese mice aortic sections; assay type: in vivo; conditions: ASP 50 mg/kg oral gavage daily for seven weeks
Description: (§1) After induction of obesity in C57BL/6 male mice fed with high fat diet for twelve weeks, they were treated daily with ASP (50 mg/kg) via oral gavage for seven weeks in vivo study. C57BL/6 mice aortae were used for ex vivo study and endothelial cells were used for in vitro study. Vascular function was determined by wire myograph. DHE and MitoSOX staining were used to detect ROS levels. QPCR, aortic en-face immunofluorescence staining, and Western blotting were used to analyze mRNA and protein expressions. Small interfering (si)RNA of Nrf2 and HO-1, inhibitors of Nrf2 (ML385, Cat. No.: HY-100523) and HO-1 (OB-24, HY-118487) were used to elucidate the mechanistic pathway of ASP's action.
(§2) After induction of obesity in C57BL/6 male mice fed with the high-fat diet for twelve weeks, they were treated daily with ASP (50 mg/kg) via oral gavage for seven weeks in vivo study. C57BL/6 mice aortae were used for ex vivo studies. Endothelial cells, HepG2 and primary adipocytes were used for in vitro studies. Vascular function was determined by wire myograph. H&E staining was employed for histological examination. Oil Red O staining was used to determine lipid droplets in tissues and cells. DHE and MitoSOX staining were used to detect ROS levels. […] ARE binding activity was determined by Dual luciferase reporter assay. […]

[2] = system: VCAM-1; experiment: Real-time PCR of VCAM-1 in aortas of obese mice; assay type: in vivo
Description: as §1, §2

[3] = system: HO-1; experiment: HO-1 expression in endothelial cells (western blotting, real-time PCR); assay type: cell-based
Description: as §1
(§3) After induction of obesity in C57BL/6 male mice fed with the high-fat diet for twelve weeks, they were treated daily with ASP (50 mg/kg) via oral gavage for seven weeks in vivo study. C57BL/6 mice aortae were used for ex vivo studies. Endothelial cells, HepG2 and primary adipocytes were used for in vitro studies. Vascular function was determined by wire myograph. H&E staining was employed for histological examination. Oil Red O staining was used to determine lipid droplets in tissues and cells. DHE and MitoSOX staining were used to detect ROS levels. QPCR, aortic en-face immunofluorescence staining, and Western blotting were used to analyze mRNA and protein expressions. ARE binding activity was determined by Dual luciferase reporter assay. Small interfering (si)RNA of Nrf2 and HO-1, inhibitors of Nrf2 (ML385, Cat. No.: HY-100523) and HO-1 (OB-24, HY-118487) were used to elucidate the mechanistic pathway of ASP's action.

[4] = system: Nrf2/antioxidant responsive element (ARE); experiment: ARE binding activity, luciferase reporter assay in endothelial cells; assay type: cell-based; conditions: for endothelial Nrf2/ARE binding, higher than the binding to impaired endothelial cells: worded as embodiment, cf. FIG. 3D
Description: as §3

[5] = system: HepG2 cells; experiment: ATP production in PA-treated HepG2 cells; assay type: cell-based
Description: as §3

[6] = system: HepG2 cells; experiment: DHE staining of palmitic acid-treated HepG2 cells; assay type: cell-based; conditions: Nrf2-inhibited HepG2 cells
Description: as §3

[7] = system: Ho-1, Sirt1, Sirt3, Sirt6 and Sod2; experiment: Real-time PCR of Nrf2 downstream genes in obese mice livers; assay type: in vivo
Description: as §3

[8] = system: Nrf2; experiment: Nrf2 nuclear translocation in palmitic acid-treated HepG2 cells; assay type: cell-based
Description: as §3

[9] = system: perirenal adipose tissues; experiment: Weight and sizes of perirenal adipose tissues in obese mice; assay type: in vivo
Description: as §3

[10] = system: adipose tissues of obese mice; experiment: Real-time PCR of adipose tissues of obese mice; assay type: in vivo
Description: as §3

[11] = endothelial cells under basal conditions
[12] = perirenal adipose tissues in obese mice
[13] = visceral adipose tissues in obese mice

## Asperuloside
[1]
  ROS generation / oxidative stress (DHE staining): suppresses elevated ROS generation; also recorded: suppressed oxidative stress
[2]; aortas of obese mice, real-time PCR
  VCAM-1 mRNA expression: decreases elevated expression of VCAM-1 and ICAM-1 mRNA
[2]; obese mice aortae, ASP 50 mg/kg oral gavage daily for seven weeks
  reduction of VCAM-1 expression: about 2 fold
[3]; IL-1β, ML385-treated cells
  HO-1 mRNA: fails to restore IL-1β-mediated downregulation of HO-1 protein (FIG. 4B) and mRNA
  HO-1 protein: fails to restore IL-1β-mediated downregulation of HO-1 protein
[3]; Nrf2-silenced cells
  HO-1 upregulation (western blotting): ASP-induced upregulation of HO-1 is eliminated; also recorded: Nrf2 knockdown attenuated HO-1 upregulation by ASP
[3]; [11]
  HO-1 expression (western blotting): dose-dependently upregulated HO-1 expression
  HO-1 mRNA (real-time PCR): dose-dependently increases HO-1 mRNA
[4]; 10 μm ASP
  endothelial Nrf2/ARE binding, higher than the binding to impaired endothelial cells: about 50%
[4]; 20 μm ASP
  endothelial Nrf2/ARE binding, higher than the binding to impaired endothelial cells: ~60%
[4]; 40 μm ASP
  endothelial Nrf2/ARE binding, higher than the binding to impaired endothelial cells: ~70%
[4]; luciferase reporter assay
  ARE binding activity: increased ARE binding activity
[5]
  production of ATP: restores the decreased production of ATP
[5]; inhibition of Nrf2
  production of ATP: inhibition of Nrf2 eliminates the rescue effect of ASP
[6]
  palmitic acid-induced oxidative stress (DHE staining): fails to attenuate palmitic acid-induced oxidative stress
[7]; obese mice livers
  gene expressions of Ho-1, Sirt1, Sirt3, Sirt6 and Sod2: upregulates gene expressions of Ho-1, Sirt1, Sirt3, Sirt6 and Sod2
[7]; worded as embodiment, cf. FIG. 13C
  increase of HO-1 mRNA expression in the liver: about 2.5 fold
[8]
  Nrf2 nuclear translocation (immunofluorescence): stimulates Nrf2 nuclear translocation in palmitic acid-treated HepG2 cells
[9]; obese mice
  ratio of perirenal adipose tissues to body weight: decreased
  sizes of adipocytes (H&E staining): remarkably reduces the sizes of adipocytes
[9]; worded as embodiment, cf. FIGS. 14A-14B
  decrease of perirenal adipose tissues in weight and sizes, average: about 35%
[10]; perirenal adipose tissues
  Cd36 upregulation: inhibited Cd36 upregulation
[10]; [12]
  Acox1 expression: increased
  Nprc expression: downregulates Nprc expression
  mRNA expression levels of Srebp1 and Acc2: decreases mRNA expression levels of Srebp1 (FIG. 15A) and Acc2
[10]; perirenal adipose tissues of obese mice
  expression levels of Il-6 and Il-1β: reverses enhanced expression levels of Il-6 (FIG. 16A) and Il-1β
[10]; subcutaneous adipose tissues
  Cd36 upregulation: inhibited Cd36 upregulation
[10]; subcutaneous adipose tissues in obese mice
  Hsl expression: upregulates Hsl expression
[10]; subcutaneous adipose tissues of obese mice
  expression of F4/80: reverses the elevated expression of F4/80
[10]; [13]
  Nprc expression: decreased Nprc expression
  Tnfα expression: decreases Tnfα expression
[10]; visceral adipose tissues of obese mice
  upregulation of Cd11c, Cd11b, and F4/80: suppresses the upregulation of Cd11c (FIG. 20A), Cd11b (FIG. 20B), and F4/80
